# Test results: patent US7285557B2, “Pyrimidinones as melanin concentrating hormone receptor 1” (SmithKline Beecham P.L.C., priority 2001, dated 2007)
# Target: T1, human melanin-concentrating hormone one receptor (Homo sapiens, UniProt Q99705)
# T1 construct: expressed in transfected cells; host or cells: CHO (CHO-K1) cells stably expressing an elkgal4-luc+ reporter gene
# Assay: Functional antagonist assay of MCHR1 (elkgal4-luc+ luciferase reporter gene in CHO cells, inhibition of MCH EC80 response)
# Format: cell-based
# Conditions: MCH1R-elkgal4-luc+ CHO cells, luciferase readout, read-out: MCHR1 pIC50 (converted)
# Method: Chinese hamster ovary (CHO-K1) cells were obtained from the American Type Culture Collection (Rockville, Md.).
# CHO cells, stably expressing an elkgal4-luc^+ reporter gene (host) were transfected by electroporation with the human melanin-concentrating hormone one receptor. A stable clone was selected using G418 for functional antagonist assays. MCH1R-elkgal4-luc^+ CHO cells were propagated in complete medium (DMEM/F12, 5% FBS, 2 mM I-glutamine) in T225 flasks. Forty-eight hours prior to assay, cells were harvested with 2 mL of 0.05% trypsin, washed with complete medium and plated at a concentration of 10,000 cells/well in complete medium in black 96-well plates. Eighteen hours prior to the assay, the medium was removed from the cells by aspiration and replaced with 90 μl/well of serum-free DMEM/F12. […] Plates were sealed and subjected to dark adaptation at room temperature for 10 minutes before luciferase activity was quantitated on a TopCount™ microplate scintillation counter (Packard) using 3 seconds/well count time. The ability of the antagonist to inhibit the MCH EC80 response was quantified by non-linear regression analysis using a curve-fitting program based in Microsoft ExCel. Specificity of the MCHR1 response was determined using the same protocol by measuring the ability of said antagonists to inhibit an EC80 thrombin response (endogenous) in the host cells.
# T1 sequence (Q99705 whole entry, the tested form may be a part): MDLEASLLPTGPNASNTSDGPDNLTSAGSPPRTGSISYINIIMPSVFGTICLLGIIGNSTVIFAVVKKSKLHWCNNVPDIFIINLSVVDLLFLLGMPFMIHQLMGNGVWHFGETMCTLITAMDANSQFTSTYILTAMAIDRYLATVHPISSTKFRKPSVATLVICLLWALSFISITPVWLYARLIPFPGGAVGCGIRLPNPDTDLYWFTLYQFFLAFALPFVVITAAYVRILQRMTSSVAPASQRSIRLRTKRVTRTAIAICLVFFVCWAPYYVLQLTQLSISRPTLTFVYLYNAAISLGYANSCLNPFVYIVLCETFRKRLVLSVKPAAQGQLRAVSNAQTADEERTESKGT
row,IC50,Structure (SMILES)
1,63.1 nM,"COc1cc(-n2cnc3cc(-c4ccc(C(F)(F)F)cc4)ccc3c2=O)ccc1OCCN1CCCC1 [Example J1, 3-{3-methoxy-4-[2-(1-pyrrolidinyl)ethoxy]phenyl}-7-[4-(trifluoromethyl)phenyl]-4(3H)-quinazolinone]"
2,79.4 nM,"COc1cc(-n2cnc3cc(-c4ccccc4)ccc3c2=O)ccc1OCCN1CCCCC1 [Example H1, 3-{3-methoxy-4-[2-(1-piperidinyl)ethoxy]phenyl}-7-phenyl-4(3H)-quinazolinone]"
